Data: patent US7053053B2, “Humanin-like peptide and use thereof” (Takeda Chemical Industries, Ltd., priority 2001, dated 2006)

Assays:
nerve cells = conditions: induced by the addition of β amyloid; Proc. Natl. Acad. Sci. USA 98: 6336–6341, 2001; cited from earlier work
[1] = test system: nerve cells into which the causative gene of familial Alzheimer's disease is introduced; conditions: nerve cells with the causative gene of familial Alzheimer's disease introduced; Proc. Natl. Acad. Sci. USA 98: 6336–6341, 2001; cited from earlier work
[2] = test system: rat adrenal medulla-derived pheochromocytoma cell PC12h; assay: Inhibition of glutamic acid-induced cell death of PC12h cells (LDH activity of cell extract); assay type: cell-based; conditions: for cell survival ratio: 1 mM glutamic acid, 72 hrs, survival in glutamic acid non-added plot = 100%, peptide not-added plot 34.0%
Description: Inhibitory Activity of the Humanin-Like Peptide against Glutanic Acid-Induced Cell Death of Rat Adrenal Medulla-Derived Pheochromocytoma Cell PC12h
PC12h cells (supplied by Prof. Hiroshi Hatanaka, Institute for Protein Research, Osaka University; Hatanaka, H., Brain Research 222: 225–233, 1981) were plated at a density of 2×10^4 cells/cm^2 in collagen-coated 96-well plates (Iwaki) containing Dulbecco's modified Eagle's medium (hereinafter referred to as “DMEM”) containing 10% fetal bovine serum and 5% horse serum. After 24 hrs, the medium was exchanged for 100 μl of DMEM containing […] HEPES (pH 7.5). At the same time, various concentrations of the humanin-like peptide prepared in Example 2 (SEQ ID NO: 4) and glutamic acid to give a concentration of 1 mM were added to the medium. After 72 hrs, cells were lysed with 100 μl of phosphate buffered saline containing 0.2% Tween 20. Then, the lactate dehydrogenase (LDH) activity of the cell extract was determined with LDH Cytotoxic Test WAKO (Wako Purechemical Industries).

Row | Substance | death of nerve cells (nerve cells) | death of nerve cells [1] | glutamic acid-induced cell death ([2]; PC12h cells, conclusion in words) | cell survival ratio ([2]; humanin-like peptide 1 μM) [%] | cell survival ratio ([2]; humanin-like peptide 10 μM) [%]
1 | humanin: peptide consisting of 24 residues (WO 01/21787), encoded by a gene cloned from the occipital lobe by Hashimoto et al. (MAPRGFSCLLLLTSEIDLPVKRRA; Humanin; UniProt Q8IVG9 1-24, looked up) | inhibited | inhibited |  |  | 
2 | humanin-like peptide: polypeptide comprising the amino acid sequence as shown in SEQ ID NO: 4; 24 residues, 6 different from humanin; synthesised in Example 2 (MARRGFSCLLLSTTATDLPVKRRT; Human) |  |  | inhibited | 59.3 | 74.6
